Data on two compounds can be found in US20030203969A1, “Pharmaceutically active aromatic guanylhydrazones” (priority 2000, published 2003).

Experiment [1] concerns macrophage-tropic HIV-1Ba-L strain. Description: Inhibition of macrophage-tropic HIV-1 Ba-L replication in de novo infected PM1 cells (p24 antigen). The class given is cell-based. The protocol: (§1) HIV replication was measured either by p24 HIV Antigen Capture Assay Kit (ELISA; HIVAG-1 Monoclonal kit BIA011; Abbott) following the manufacturer's recommendation, or by using the Quantiplex HIV-1 RNA 3.0 Assay (bDNA) system (Chiron Diagnostics). The latter assay is a signal amplification nucleic acid probe assay (employing a sandwich nucleic acid hybridization procedure) for direct quantitation of HIV RNA in human plasma. There, in brief, HIV-1 is first concentrated from plasma by centrifugation. After release of genomic HIV-1 RNA from the virions, the RNA is captured to a microwell by a set of specific, synthetic oligonucleotide capture probes. A set of target probes hybridize to both the viral RNA and the pre-amplifier probes. The capture probes, comprised of 17 individual capture extenders, and the target probes, comprised of 81 individual target extenders, bind to different regions of the pol gene of the viral RNA. The amplifier probe hybridizes to the pre-amplifier forming a branched DNA (bDNA) complex. Then, multiple copies of an alkaline phosphatase labeled probe are hybridized to this immobilized bDNA complex. Detection is achieved by incubating the entire complex with a chemoluminescent substrate. Light emission is directly proportional to the amount of HIV-1 RNA present in each sample, and results are recorded as relative light units by an appropriate analyzer.
(§2) Jurkat cells (species: human T-cell leukemia; special characteristics: cells are permissive for growth of T-cell tropic HIV strains; source:ATCC Cat.No. TIB 152) or PM1 cells (species: clonal derivative of human HUT 78 cells; special characteristics: cells are permissive for growth of macrophage-tropic and T-cell tropic HIV strains; source: Dr. Marvin Reitz, courtesy of the NIH AIDS Research and Reference Reagent Program Cat.No. 3038) were stimulated with Phytohemagglutinin (PHA-P, Product No. L9132 from Sigma) in a concentration of 2 μg/ml (1.5×10^6 cells/ml) and Hexadimethrine Bromide (Polybrene, Product No. H9268 from Sigma) in a concentration of 2 μg/ml (1.5×10^6 cells/ml) in RPMI 1640 medium containing 10% fetal calf serum (FCS, Pansystems GmbH) and antibiotics for 3 days.
(§3) For HIV-1 infection, 5×10^7 cells were resuspended in 500 μl culture medium without test drugs and incubated in a 50 ml blue-cap-tube at 37° C. for 5 hrs with HIV-1 high titer viral stocks. Jurkat cells were infected with the T-cell tropic strain HIV-1 NL4-3, PM1 cells with the macrophage tropic strain HIV-1 Ba-L (both from the NIH AIDS Research and Reference Reagent Program). After infection, cells were washed twice with PBS without Ca^2+ and Mg^2+ to avoid false positive p24 antigen determination. Cells were resuspended, and identical aliquots (1×10^6/ml) of infected cells were further cultured in 10 ml medium with test drugs at various concentrations, or in medium with DMSO as control for calculation of the inhibition of virus replication (in %].
(§4) Culture medium was changed and cells were split at days 3 and 7 of the experiments. Viability of the cells (Trypan-blue staining), cell counts and p24 antigen levels were determined at days 3, 7 and 10 of the experiments. No significant differences in cell viability were observed (˜85-90% living cells).
(§5) At day 10 of infection, the HIV strains replicated vigorously in untreated cultures. Numbers describe percent inhibition of HIV replication as compared to control experiments.

Experiment [2] has as its system T-cell-tropic HIV-1NL4/3 strain. Description: Inhibition of T-cell-tropic HIV-1 NL4/3 replication in de novo infected Jurkat cells (p24 antigen). The class given is cell-based. The protocol: as §1, §2, §3, §4, §5
A further experiment concerns E. Coli XL-1 blue strain. The experiment is described as follows: Growth assay for E. coli (optical density at 610 nm). Particulars: LB medium, 37° C., one day; read-out: IC50 (μM) E. coli proliferation. The class given is cell-based. The protocol:
We used the E. Coli XL-1 blue strain (Stratagene) for the investigation of antibacterial activity. During this experiments LB medium was used for E. coil growth. LB was prepared as follows: 1% trypton (weight/volume), 0.5% Yeast extract (weight/volume), and 1.5% NaCl (weight/volume) were dissolved in water and autoclaved. The media contained the inhibitor at 100 μM, 10 μM, or 1 μM concentrations, respectively.
The assay was performed as follows: bacteria were seeded to 96-well plates containing the respective inhibitors. The bacteria-containing plates were incubated at 37° C. for one day. After incubation time, E. coli growth was assayed by the measurement of the optical density at 610 nm wavelength.

In experiment [3] the target is T1, deoxyhypusine synthase (DHS) (Homo sapiens, UniProt P49366).
T1 construct: made in house; host or cells: E. coli BL21 (DE3), pGex vector
T1 sequence (P49366 1-369): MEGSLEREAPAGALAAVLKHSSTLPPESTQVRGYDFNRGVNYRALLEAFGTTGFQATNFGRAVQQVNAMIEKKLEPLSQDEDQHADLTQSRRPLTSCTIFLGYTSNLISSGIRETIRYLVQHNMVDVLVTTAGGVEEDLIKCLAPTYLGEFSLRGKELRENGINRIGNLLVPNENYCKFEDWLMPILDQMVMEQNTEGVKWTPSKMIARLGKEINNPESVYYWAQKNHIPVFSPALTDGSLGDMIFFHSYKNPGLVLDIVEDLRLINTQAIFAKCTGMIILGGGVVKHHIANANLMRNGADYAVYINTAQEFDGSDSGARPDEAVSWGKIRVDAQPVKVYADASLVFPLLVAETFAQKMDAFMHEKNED
The experiment is described as follows: In vitro DHS screening assay (hypusine formation on eIF-5A). It counts as biochemical.

For `C/C(=N\N=C(N)N)c1ccc(NC(=O)Nc2cc(/C(C)=N/N=C(N)N)cc(/C(C)=N/N=C(N)N)c2)cc1` [Compound 1, N-(4-acetylphenyl)-N′-(3,5-diacetylphenyl)urea tris (amidinohydrazone)], the “percent inhibition of HIV replication as compared to control” value (“percent inhibition of HIV replication” below) was 23% in experiment [1] (1.0 μM, d7); 0% in experiment [1] (1.0 μM, d10); 72% in experiment [1] (5.0 μM, d7); 51% in experiment [1] (5.0 μM, d10); 15% in experiment [2] (HIV-1 NL4/3, 1.0 μM, d7); 5% in experiment [2] (HIV-1 NL4/3, 1.0 μM, d10). For the same compound, the “percent inhibition of HIV replication” value in experiment [2] (HIV-1 NL4/3, 5.0 μM, d7) stood at 52%; in experiment [2] (HIV-1 NL4/3, 5.0 μM, d10) it was 31%. The IC50 with E. Coli XL-1 blue strain is less than 0.1 µM. Besides, the “inhibition of the hypusine formation on the elF-5A protein” value in experiment [3] is on record as “potent inhibitors”.

Turning to `CC(=NNC(=N)N)c1cc(NC(=O)CCC(=O)Nc2cc(C(C)=NNC(=N)N)cc(C(C)=NNC(=N)N)c2)cc(C(C)=NNC(=N)N)c1` [Compound 5, N,N′-bis (3,5-diacetylphenyl) butane diamide tetrakis (amidinohydrazone)], the “percent inhibition of HIV replication” value in experiment [1] (1.0 μM, d7) turned out to be 48%; in experiment [1] (1.0 μM, d10) it was 35%; in experiment [1] (5.0 μM, d7), 97%; in experiment [1] (5.0 μM, d10), 86%; in experiment [2] (HIV-1 NL4/3, 1.0 μM, d7), 26%; in experiment [2] (HIV-1 NL4/3, 1.0 μM, d10), 0%. Also, the “percent inhibition of HIV replication” value in experiment [2] (HIV-1 NL4/3, 5.0 μM, d7) stood at 70%; in experiment [2] (HIV-1 NL4/3, 5.0 μM, d10), 16%. In addition, the IC50 in the experiment on E. Coli XL-1 blue strain is less than 0.1 µM. Moreover, the “inhibition of the hypusine formation on the elF-5A protein” value in experiment [3] is “potent inhibitors”.
